# Results published in PMC3310947 (Chemical biology & drug design, 2012).
# Experiments:
# [1] = target: T1, mouse Dvl1 PDZ domain (mDvl1 residues 247-341) (Mus musculus, UniProt P51141, C338A); assay: […]-HSQC NMR chemical shift titration; assay type: binding
# T1 sequence (P51141 247-341 C338A): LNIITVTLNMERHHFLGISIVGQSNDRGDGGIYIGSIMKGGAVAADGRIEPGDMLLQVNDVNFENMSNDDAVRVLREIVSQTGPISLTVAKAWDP
# [2] = target: T1, mouse Dvl1 PDZ domain (mDvl1 residues 247-341); assay: fluorescence polarization competition with Rox-DprC; assay type: binding
Compound,Kd [1],Ki [2]
CC(C)C[C@H](NC(=O)[C@H](Cc1ccccc1)NC(=O)c1cccc(F)c1)C(=O)O [J02-001],7.67 µM,
Cc1ccc(C[C@H](NC(=O)c2cccc(C#N)c2)C(=O)N[C@@H](CC(C)C)C(=O)O)cc1 [J01-012],1.83 µM,
Cc1ccc(C[C@H](NC(=O)c2cccc(C)c2)C(=O)N[C@@H](CC(C)C)C(=O)O)cc1 [J01-015],2.96 µM,3.5 ± 0.21 µM
CC(C)C[C@H](NC(=O)[C@H](Cc1ccccc1)NC(=O)c1ccc(F)cc1)C(=O)O [J02-002],3.49 µM,
Cc1ccc(C[C@H](NC(=O)c2cccc(F)c2)C(=O)N[C@@H](CC(C)C)C(=O)O)cc1 [J01-007],2.27 µM,4.2 ± 0.46 µM
Cc1ccc(C[C@H](NC(=O)c2cc(C)c(F)c(F)c2)C(=O)N[C@@H](CC(C)C)C(=O)O)cc1 [J01-017a],,1.5 ± 0.52 µM
